The target of the assay is CDK2 (human) (UniProt P24941). The assay is described as follows: Enzyme Assay.
The molecule `CCNCc1cncc(-c2ccc3[nH]nc(-c4nc(-c5cccc(F)c5)c[nH]4)c3c2)c1C` had a Ki of under 0.05 µM.

The molecule `CNCc1cncc(-c2ccc3[nH]nc(-c4nc(C)c[nH]4)c3c2)c1C` had a Ki of under 0.05 µM.

In the case of `CCCCCC.CCNCc1cncc(-c2ccc3[nH]nc(-c4nc(C)c(C)[nH]4)c3c2)c1C`, the Ki was under 0.05 µM.

For the molecule `CCNCc1cncc(-c2ccc3[nH]nc(-c4ncc(C(=O)NCC)[nH]4)c3c2)c1C`, the Ki is under 0.05 µM.

Take `CCNCc1cncc(-c2ccc3[nH]nc(-c4nc(C)c[nH]4)c3c2)c1C`: the inhibition constant (Ki) was under 0.05 µM.

For the molecule `CCNCc1cncc(-c2ccc3[nH]nc(-c4nc(C(=O)NCc5cccnc5)c[nH]4)c3c2)c1C`, the Ki is under 0.05 µM.

As to `CCNCc1cncc(-c2ccc3[nH]nc(-c4cc(C)n[nH]4)c3c2)c1C`, the inhibition constant (Ki) is under 0.05 µM.

Take `CCCc1nc(-c2n[nH]c3ccc(-c4cncc(CNCC)c4C)cc23)[nH]c1C`: the inhibition constant (Ki) is under 0.05 µM.

`Cc1c(CNC(C)C)cncc1-c1ccc2[nH]nc(-c3ncc[nH]3)c2c1` came in with a Ki of under 0.05 µM.

Molecule `CCNCc1cncc(-c2ccc3[nH]nc(-c4ncc(C(=O)N[C@@H]5CCc6ccccc65)[nH]4)c3c2)c1C` registered a Ki of under 0.05 µM.

Regarding `CCNCc1cncc(-c2ccc3[nH]nc(-c4nc(-c5ccccc5)c(C(=O)NCc5ccccc5)[nH]4)c3c2)c1C`, the Ki is under 0.05 µM.

`CCNCc1cncc(-c2ccc3[nH]nc(-c4ncc(C(=O)NCCOC)[nH]4)c3c2)c1C` registered a Ki of under 0.05 µM.

`CCNCc1cncc(-c2ccc3[nH]nc(-c4nc(-c5ccc(OC)c(OC)c5)c[nH]4)c3c2)c1C` came in with a Ki of under 0.05 µM.

In turn, `CCNCc1cncc(-c2ccc3[nH]nc(-c4ncc(C(=O)N5Cc6ccccc6C5)[nH]4)c3c2)c1C` had a Ki of under 0.05 µM.

For the molecule `CCNCc1cncc(-c2ccc3[nH]nc(-c4ncc(C(=O)N(C)C5CCN(Cc6ccccc6)C5)[nH]4)c3c2)c1C` (stereo not drawn), the Ki is under 0.05 µM.

`CCNCc1cncc(-c2ccc3[nH]nc(-c4nc(-c5ccc(Cl)cc5)c(C)[nH]4)c3c2)c1C`: the Ki is under 0.05 µM.

Consider `CCNCc1cncc(-c2ccc3[nH]nc(-c4ncc(C(=O)N5CCC6CCCCC6C5)[nH]4)c3c2)c1C` (stereo not drawn), for which the Ki was under 0.05 µM.

As for `CCNCc1cncc(-c2ccc3[nH]nc(-c4ncc(C(=O)N5CCCCCC5)[nH]4)c3c2)c1C`, the Ki was under 0.05 µM.

`Cc1c(N)cncc1-c1ccc2[nH]nc(-c3nc4c([nH]3)CCCC4)c2c1` gave a Ki of under 0.05 µM.

The molecule `CCNCc1cncc(-c2ccc3[nH]nc(-c4ncc(C(=O)N5CCN(c6ccccc6)CC5)[nH]4)c3c2)c1C` showed an inhibition constant (Ki) of under 0.05 µM.

On to `CCNCc1cncc(-c2ccc3[nH]nc(-c4nc(-c5ccccc5)c(C)[nH]4)c3c2)c1C`, for which the Ki was under 0.05 µM.

As for `CCNCc1cncc(-c2ccc3[nH]nc(-c4nc(CC(C)C)c(C)[nH]4)c3c2)c1C`, the Ki is under 0.05 µM.

`CCNCc1cncc(-c2ccc3[nH]nc(-c4ncc(C(=O)N(CC)CC)[nH]4)c3c2)c1C` yielded a Ki of under 0.05 µM.

With `CCNCc1cncc(-c2ccc3[nH]nc(-c4nc(C(=O)NC5CCCCC5)c[nH]4)c3c2)c1C`, the Ki was under 0.05 µM.

`CCNCc1cncc(-c2ccc3[nH]nc(-c4ncc(C(=O)N5CCC(Oc6ccccc6)CC5)[nH]4)c3c2)c1C`: the Ki is under 0.05 µM.

For `CCNCc1cncc(-c2ccc3[nH]nc(-c4ncc(C(=O)N5CCN(Cc6ccccn6)CC5)[nH]4)c3c2)c1C`, the Ki is under 0.05 µM.

`CCNCc1cncc(-c2ccc3[nH]nc(-c4ncc(C(=O)NC5C6CC7CC(C6)CC5C7)[nH]4)c3c2)c1C` (stereo not drawn) registered a Ki of under 0.05 µM.

For the molecule `CCNCc1cncc(-c2ccc3[nH]nc(-c4ncc(C(=O)NCCN(C)C)[nH]4)c3c2)c1C`, the Ki was under 0.05 µM.

In the case of `CCCCCC.CCNCc1cncc(-c2ccc3[nH]nc(-c4nc(CC)c(C)[nH]4)c3c2)c1C`, the Ki was under 0.05 µM.

The molecule `CC(C)(C)O.Cc1c(N)cncc1-c1ccc2[nH]nc(-c3nc(-c4ccc(F)cc4)c[nH]3)c2c1` returned a Ki of under 0.05 µM.

For `CCNCc1cncc(-c2ccc3[nH]nc(-c4ncc(C(=O)NC(C)C)[nH]4)c3c2)c1C`, the Ki was under 0.05 µM.

The molecule `CCNCc1cncc(-c2ccc3[nH]nc(-c4ncc(C(=O)N[C@H]5CCc6ccccc65)[nH]4)c3c2)c1C` yielded an inhibition constant Ki of under 0.05 µM.

As to `CCNCc1cncc(-c2ccc3[nH]nc(-c4ncc(C(=O)N5CCCC5)[nH]4)c3c2)c1C`, the Ki was under 0.05 µM.

`Cc1c(N)cncc1-c1ccc2[nH]nc(-c3nc(-c4cccc(F)c4)c[nH]3)c2c1` registered a Ki of under 0.05 µM.

Molecule `CCNCc1cncc(-c2ccc3[nH]nc(-c4ncc(C(=O)N5CCC(Cc6ncccn6)CC5)[nH]4)c3c2)c1C` gave a Ki of under 0.05 µM.

On to `CCNCc1cncc(-c2ccc3[nH]nc(-c4nc(-c5ccccc5)c[nH]4)c3c2)c1C`, for which the Ki was under 0.05 µM.

For `CCNCc1cncc(-c2ccc3[nH]nc(-c4nc(-c5cc(Cl)cc(Cl)c5)c(C)[nH]4)c3c2)c1C`, the Ki was under 0.05 µM.

Molecule `CCNCc1cncc(-c2ccc3[nH]nc(-c4ncc(C(=O)N(CCN(C)C)Cc5ccccc5)[nH]4)c3c2)c1C` had an inhibition constant (Ki) of under 0.05 µM.

In turn, `C1CCCCC1.COCc1cncc(-c2ccc3[nH]nc(-c4nc5c([nH]4)CCCC5)c3c2)c1C` gave a Ki of under 0.05 µM.

`CCNCc1cncc(-c2ccc3[nH]nc(-c4nc5c([nH]4)CCCC5)c3c2)c1C` gave a Ki of under 0.05 µM.

Molecule `CCNCc1cncc(-c2ccc3[nH]nc(-c4nc(-c5ccc(C(F)(F)F)cc5)c(C)[nH]4)c3c2)c1C` gave an inhibition constant (Ki) of under 0.05 µM.

Molecule `CCNCc1cncc(-c2ccc3[nH]nc(-c4ncc(C(=O)NCc5ccccn5)[nH]4)c3c2)c1C` gave an inhibitory constant (Ki) of under 0.05 µM.

In turn, `CCNCc1cncc(-c2ccc3[nH]nc(-c4ncc(C(=O)N[C@H]5CCCCNC5=O)[nH]4)c3c2)c1C` returned an inhibition constant Ki of under 0.05 µM.

On to `CCNCc1cncc(-c2ccc3[nH]nc(-c4ncc(C(=O)N5CCCC(Cc6ncccn6)CC5)[nH]4)c3c2)c1C` (stereo not drawn), for which the inhibition constant Ki was under 0.05 µM.

In turn, `CCNCc1cncc(-c2ccc3[nH]nc(-c4ncc(C(=O)N5CC=C(c6ccccc6)CC5)[nH]4)c3c2)c1C` registered a Ki of under 0.05 µM.

As to `CCNCc1cncc(-c2ccc3[nH]nc(-c4nc(-c5ccc(F)cc5)c[nH]4)c3c2)c1C`, the Ki was under 0.05 µM.

With `CCc1nc(-c2n[nH]c3ccc(-c4cncc(N)c4C)cc23)[nH]c1CC`, the Ki was under 0.05 µM.

Consider `CCNCc1cncc(-c2ccc3[nH]nc(-c4ncc(C(=O)N5CCOCC5)[nH]4)c3c2)c1C`, for which the Ki was under 0.05 µM.

`CCNCc1cncc(-c2ccc3[nH]nc(-c4ncc[nH]4)c3c2)c1CC`: the Ki is under 0.05 µM.

The molecule `CCNCc1cncc(-c2ccc3[nH]nc(-c4ncc(C(=O)N5CCCCC5)[nH]4)c3c2)c1C` registered an inhibition constant Ki of under 0.05 µM.

`CCNCc1cncc(-c2ccc3[nH]nc(-c4nc(-c5ccc(OC)cc5)c[nH]4)c3c2)c1C`: the Ki is under 0.05 µM.

As for `CCNCc1cncc(-c2ccc3[nH]nc(-c4nc(-c5cccc(OC)c5)c[nH]4)c3c2)c1C`, the Ki was under 0.05 µM.

`CCNCc1cncc(-c2ccc3[nH]nc(-c4nc(-c5cccc(C(F)(F)F)c5)c(C)[nH]4)c3c2)c1C` showed a Ki of under 0.05 µM.

In the case of `c1ncc(-c2n[nH]c3ccc(-c4cncc5[nH]ccc45)cc23)[nH]1`, the Ki was under 0.05 µM.

`CCNCc1cncc(-c2ccc3[nH]nc(-c4ncc[nH]4)c3c2)c1C` showed a Ki of under 0.05 µM.

In turn, `c1c[nH]c(-c2n[nH]c3ccc(-c4cncc5[nH]ccc45)cc23)n1` gave a Ki of under 0.05 µM.

The molecule `CCNCc1cncc(-c2ccc3[nH]nc(-c4ncc(C(=O)NCCC5=CCCCC5)[nH]4)c3c2)c1C` had a Ki of under 0.05 µM.

As to `CCNCc1cncc(-c2ccc3[nH]nc(-c4ncc(C(=O)N5CCN(Cc6ccccc6)CC5)[nH]4)c3c2)c1C`, the Ki was under 0.05 µM.

`CCNCc1cncc(-c2ccc3[nH]nc(-c4ncc(C(=O)N5CCN(C)CC5)[nH]4)c3c2)c1C` displayed a Ki of under 0.05 µM.

`CCNCc1cncc(-c2ccc3[nH]nc(-c4nc5c([nH]4)CCCC5)c3c2)c1CC` yielded a Ki of under 0.05 µM.

Molecule `CCNCc1cncc(-c2ccc3[nH]nc(-c4ncc(C(=O)N5CCN(CCOC)CC5)[nH]4)c3c2)c1C` yielded a Ki of under 0.05 µM.

As to `CCNCc1cncc(-c2ccc3[nH]nc(-c4ncc(C(=O)N5CCN(c6ccc(F)cc6F)CC5)[nH]4)c3c2)c1C`, the Ki is under 0.05 µM.

Turning to `CNCc1cncc(-c2ccc3[nH]nc(-c4ncc[nH]4)c3c2)c1C`, the inhibition constant Ki is under 0.05 µM.

On to `CCNCc1cncc(-c2ccc3[nH]nc(-c4ncc(C(=O)NC5CCCC5)[nH]4)c3c2)c1C`, for which the inhibitory constant (Ki) was under 0.05 µM.

For the molecule `CCNCc1cncc(-c2ccc3[nH]nc(-c4nc(CC)c(CC)[nH]4)c3c2)c1C`, the Ki is under 0.05 µM.

Molecule `CCNCc1cncc(-c2ccc3[nH]nc(-c4cnc[nH]4)c3c2)c1C` registered a Ki of under 0.05 µM.

With `CCNCc1cncc(-c2ccc3[nH]nc(-c4ncc(C(=O)N5C[C@@H](C)O[C@@H](C)C5)[nH]4)c3c2)c1C`, the Ki is under 0.05 µM.

In turn, `C[S+](C)[O-].Cc1c(N)cncc1-c1ccc2[nH]nc(-c3nc(-c4ccccc4)c[nH]3)c2c1` returned a Ki of under 0.05 µM.

Usually Ki stands for the equilibrium dissociation constant of an inhibitor or competing ligand from its target. Higher therefore signals a looser hold on the target.

These data come from the Kinase Knowledgebase extract (Sharma et al. 2016).
